Assay results published in publication PMC10436263 (2023).

Legend:
Assay in all cases: X-ray crystallography
[1] = test system: d(5′-CGCGAAAACGCG-3′/5′-CGCGTTTTCGCG-3′) (A4) (DNA, duplex) CGCGAAAACGCG/CGCGTTTTCGCG; details: crystallization details in Table S1 (not seen); 1.55 Å
[2] = test system: d(5′-CGCGATATCGCG-3′)2 (ATAT) (DNA, duplex) CGCGATATCGCG; details: crystallization details in Table S1 (not seen); 1.63 Å
[3] = test system: d(5′-GCTGGATATATCCAGC-3′)2 (ATATAT) (DNA, duplex) GCTGGATATATCCAGC; details: 600 mM CaCl2; 10 mM HEPES pH 8.6, 40% PEG200 (well); 1.50 Å
[4] = test system: d(5′-CGCAAAAAAGCG-3′/5′-CGCTTTTTTGCG-3′) (A6) (DNA, duplex) CGCAAAAAAGCG/CGCTTTTTTGCG; details: crystallization details in Table S1 (not seen); two orientations (8F1S, 8F1V); 2.1 Å
[5] = test system: d(5′-CGCAAATTTGCG-3′)2 (AAATTT, A3T3) (DNA, duplex) CGCAAATTTGCG; details: crystallization details in Table S1 (not seen); 1.54 Å
[6] = test system: d(5′-CGCGAATTCGCG-3′)2 (AATT) (DNA, duplex) CGCGAATTCGCG

Measured: binding

N=C(N)c1ccc(-c2ccc3nc(-c4ccc(C(=N)N)cc4)[nH]c3c2)cc1
yes: [1] | [2] | [3] | [4] | [5] | [6]; 20 mM MgCl2, 80 mM NaCl, 12 mM KCl, 40 mM sodium cacodylate pH 6.0, 12 mM spermine, 10% MPD, two orientations (8EC1 I, 8ED6 II)

N=C(N)c1ccc(-c2ccc3cc(-c4ccc(C(=N)N)cc4)[nH]c3c2)cc1
yes: [6]; crystallization details in Table S1 (not seen)
